Assay results taken from US7749976B2, “Isolated PTPMT1 protein which mediates insulin production and uses thereof” (The Regents of the University of California, priority 2005, dated 2010).
Marks after values point to notes of the source that are not given here.

Tests used:
[1] = target: T1, PLIP (Mus musculus, UniProt Q66GT5); assay: Phosphatase activity of various PTPs (malachite green / radiolabeled protein substrates); format: biochemical, murine; settings: for Phosphatase activity, PLIP: mole of phosphate released/min/mol of enzyme, pH 5.5, triplicate, this study
T1 construct: ligating a PCR product encoding full-length PLIP; made in house; host or cells: Escherichia coli BL21 (DE3) CodonPlus RIL
T1 sequence (Q66GT5 32-193): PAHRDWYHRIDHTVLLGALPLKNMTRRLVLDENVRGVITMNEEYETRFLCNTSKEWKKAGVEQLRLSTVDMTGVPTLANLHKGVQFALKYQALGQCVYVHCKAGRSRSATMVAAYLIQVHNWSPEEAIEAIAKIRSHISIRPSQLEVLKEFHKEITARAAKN
Procedure: Recombinant murine PLIP was expressed as a fusion protein with N-terminal GST and 6-His tags in Escherichia coli BL21 (DE3) CodonPlus RIL cells (Stratagene). The expression construct was assembled by ligating a PCR product encoding full-length PLIP into the 5′-EcoR1 and 3′-Xho1 sites of a modified pET41 vector (pSJ6), kindly provided by Zhaohui Xu (University of Michigan). […] Cultures were then chilled on ice for 20 min, supplied with fresh antibiotics, induced with IPTG to a final concentration of 0.4 mM, and allowed to grow overnight @ 25° C., as previously described (Taylor and Dixon, 2003). All subsequent steps were performed @ 4° C. The cultures were pelleted by spinning @ 6000 rpm for 10 min in a Sorvall GSA rotor, resuspended in 30 ml of buffer (20 mM Imidazole, 50 mM Tris pH 7.4, 300 mM NaCl) with Complete protease inhibitors (Roche), and lysed via French Press. Insoluble material was removed by centrifugation @ 50,000 rpm for 30 min. The fusion protein was purified from the soluble supernatant first over Ni^2+ agarose beads, and then by successive separation on Superdex 75 and 200 gel filtration columns (Amersham). The resulting protein was concentrated, flash frozen in liquid nitrogen, and stored @−80° C. in 25% glycerol, 2 mM EDTA, and 2 mM DTT until use.
(§1) Di-C8 phosphoinosites (Echelon) and Dioleoyl-phosphatidylserine (Sigma) were dried together in a Speed Vac and resuspended via sonication in 18 μl assay buffer (100 mM sodium acetate, 50 mM bis-Tris, 50 mM Tris (pH 5.5), 10 mM DTT) to final concentrations of 50 μM and 500 μM, respectively. After prewarming at 37° C. for 5 min, reactions were initiated by the addition of 20 to 2000 ng of GST-PLIP diluted in assay buffer containing 1.0 mg/ml gelatin. Reactions were quenched after 5-30 min by the addition of 20 μl 0.1 M N-ethylmaleimide, and spun at 18,000×g for 10 min to sediment the lipid aggregates. Twenty-five microliters of the supernatant was added to 50 μl of malachite green reagent and vortexed. Samples were allowed to sit for 40 minutes for color development before measuring absorbance at 620 nm. Inorganic phosphate release was quantitated by comparison to a standard curve of KH2PO4 in dH2O.
(§2) Assays using radiolabeled protein substrates or pNPP were carried in assay buffer containing 50 mM sodium acetate, 25 mM bis-Tris, 25 mM Tris, and 2 mM DTT at pH 5.5 (GST-PLIP), 6.0 (VHR), or 7.0 (TC-PTP), at 30° C. Radiolabeled proteins and pNPP were prepared and assayed as previously reported (Taylor et al., 1997).

[2] = target: T2, MTM1 (Homo sapiens, UniProt Q13496); settings: Ref. 32; cited from earlier work
T2 sequence (Q13496 1-603): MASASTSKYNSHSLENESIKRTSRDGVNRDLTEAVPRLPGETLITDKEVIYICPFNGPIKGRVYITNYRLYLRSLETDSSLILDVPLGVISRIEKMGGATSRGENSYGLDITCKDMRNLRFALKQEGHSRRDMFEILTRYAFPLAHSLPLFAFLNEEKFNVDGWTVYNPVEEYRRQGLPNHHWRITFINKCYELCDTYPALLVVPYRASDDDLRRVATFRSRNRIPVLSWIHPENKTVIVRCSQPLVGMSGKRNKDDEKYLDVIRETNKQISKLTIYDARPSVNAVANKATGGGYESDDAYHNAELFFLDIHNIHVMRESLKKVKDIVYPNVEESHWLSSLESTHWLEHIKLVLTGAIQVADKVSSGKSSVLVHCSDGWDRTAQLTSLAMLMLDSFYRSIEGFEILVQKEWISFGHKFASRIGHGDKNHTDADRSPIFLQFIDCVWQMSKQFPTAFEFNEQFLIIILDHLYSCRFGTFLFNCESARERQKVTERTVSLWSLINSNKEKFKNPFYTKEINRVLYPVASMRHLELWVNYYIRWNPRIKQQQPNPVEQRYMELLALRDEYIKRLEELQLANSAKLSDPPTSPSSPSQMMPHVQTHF

[3] = target: PTEN (Homo sapiens, UniProt P60484); assay: Phosphatase activity of various PTPs; format: biochemical; settings: for Phosphatase activity, PTEN: phosphoinositide substrates, this study
Sequence of PTEN (P60484 whole entry, species assumed): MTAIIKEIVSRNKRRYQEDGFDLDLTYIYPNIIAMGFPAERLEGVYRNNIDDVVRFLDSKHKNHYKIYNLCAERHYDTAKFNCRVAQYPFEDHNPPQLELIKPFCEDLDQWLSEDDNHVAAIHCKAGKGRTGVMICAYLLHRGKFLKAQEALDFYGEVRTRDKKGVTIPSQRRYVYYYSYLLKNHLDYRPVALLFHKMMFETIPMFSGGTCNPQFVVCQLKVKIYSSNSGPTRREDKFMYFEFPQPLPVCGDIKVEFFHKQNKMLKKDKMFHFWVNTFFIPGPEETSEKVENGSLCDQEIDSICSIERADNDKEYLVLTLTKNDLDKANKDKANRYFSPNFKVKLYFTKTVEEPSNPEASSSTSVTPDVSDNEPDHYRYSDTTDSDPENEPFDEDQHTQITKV

[4] = target: T1, PLIP; assay: Activity of PLIP against water soluble PI(5)P derivatives of varying acyl chain length; format: biochemical, murine; settings: water soluble substrate
[5] = target: T1, PLIP; assay: Kinetic analysis of PLIP phosphatase activity (saturation kinetics); format: biochemical, murine
Procedure: as §2
To further explore PLIP's propensity to act as a protein phosphatase, a kinetic analysis of its activity toward the artificial phosphotyrosine analog, para-nitrophenyl phosphate (pNPP), alongside with di-C8 PI(5)P were performed (Taylor et al., 1997). FIG. 3 illustrates the kinetic analysis of PLIP phosphatase activity. Saturation kinetics for PLIP against pNPP (A) and water-soluble di-C8 PI(5)P (B) are shown. V (reaction velocity) is in units of pmol/(min μg).

[6] = target: T2, MTM1; assay: Phosphatase activity of various PTPs; format: biochemical
[7] = target: T3, TC-PTP (Homo sapiens, UniProt P17706); assay: Phosphatase activity of various PTPs (malachite green / radiolabeled protein substrates); format: biochemical
T3 sequence (P17706 1-415): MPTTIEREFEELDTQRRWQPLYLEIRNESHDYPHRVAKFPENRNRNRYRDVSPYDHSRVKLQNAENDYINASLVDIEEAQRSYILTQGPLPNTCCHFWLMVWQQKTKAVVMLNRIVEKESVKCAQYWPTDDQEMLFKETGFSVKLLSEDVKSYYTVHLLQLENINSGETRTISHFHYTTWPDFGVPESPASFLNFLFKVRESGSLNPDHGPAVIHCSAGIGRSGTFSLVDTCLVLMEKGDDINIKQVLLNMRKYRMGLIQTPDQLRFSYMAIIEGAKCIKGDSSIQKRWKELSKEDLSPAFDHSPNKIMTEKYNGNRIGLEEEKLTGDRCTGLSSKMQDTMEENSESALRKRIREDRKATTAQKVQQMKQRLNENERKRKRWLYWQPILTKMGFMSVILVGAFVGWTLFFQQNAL
Procedure: as §1, §2
(§3) Due to the only recent emergence of PI(5)P as a known signaling molecule, few PTP's have been tested for activity against this substrate. To ensure that activity against PI(5)P is not a common feature of PTP's, membrane-bound di-C8 PI(5)P was assayed using a known tyrosine-specific PTP (TC-PTP) and a known dual-specific PTP (VHR) (Ishibashi et al., 1992; Zhao et al., 1992; Ruzzene et al., 1993; Zhou et al., 1994; Denu et al., 1995).

[8] = target: VHR (Homo sapiens, UniProt P51452); assay: as above; format: biochemical
Sequence of VHR (P51452 whole entry, species assumed): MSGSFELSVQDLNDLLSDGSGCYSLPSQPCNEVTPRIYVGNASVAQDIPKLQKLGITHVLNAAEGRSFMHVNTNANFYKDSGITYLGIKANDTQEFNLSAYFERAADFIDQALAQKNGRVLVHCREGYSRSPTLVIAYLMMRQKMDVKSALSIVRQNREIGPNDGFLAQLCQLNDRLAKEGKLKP
Procedure: as §1, §2, §3

[9] = mole of phosphate released/min/mol of enzyme, triplicate, this study

Q: With `Nc1ncnc2c1ncn2[C@@H]1O[C@H](COP(=O)(O)OP(=O)(O)OP(=O)(O)O)[C@@H](O)[C@H]1O` [ATP] as the compound, how does the “ATPase activity of PTPMT1 in vitro” value [1] read?
A: extremely poor

Q: For `CCCCCCCC(=O)OC[C@H](COP(=O)(O)O[C@@H]1[C@H](O)[C@H](OP(=O)(O)O)[C@@H](O)[C@H](O)[C@H]1O)OC(=O)CCCCCCC` [PI (3) P], which “Phosphatase activity, MTM1” value [2] is on record?
A: 4470^d mol/(min mol)

Q: What about the “Phosphatase activity, PTEN” value [3] of the same compound?
A: 77.9^b mol/(min mol)

Q: What about the “Phosphatase activity, PLIP” value [1] of the same compound?
A: 1.3^b mol/(min mol)

Q: Which “Phosphatase activity, MTM1” value [2] does the source give for `CCCCCCCC(=O)OC[C@H](COP(=O)(O)OC1[C@H](O)[C@H](OP(=O)(O)O)C(OP(=O)(O)O)[C@H](OP(=O)(O)O)[C@H]1O)OC(=O)CCCCCCC` (stereo partly drawn) [PI (3, 4, 5) P3] here?
A: 2.1^d mol/(min mol)

Q: What about the “PTEN fold preference over PI(3,5)P2” value ([3]; di-C8 PIs in lipid bilayer with phosphatidylserine carrier lipid) of the same compound?
A: 1.8 fold

Q: What about the “Phosphatase activity, PTEN” value [3] of the same compound?
A: 346^b mol/(min mol)

Q: And the “Phosphatase activity, PLIP” value [1]?
A: 3.1^b mol/(min mol)

Q: For `CCCC(=O)OCC(COP(=O)(O)OC1C(O)C(O)C(O)C(OP(=O)(O)O)C1O)OC(=O)CCC` (stereo not drawn) [di-C4 PI(5)P], which “Fold increase in PLIP activity versus inositol (1,5)P2” value [4] is on record?
A: 10 fold

Q: Which “Km fold higher than Km for di-C8 PI(5)P” value [5] does the source give for `O=[N+]([O-])c1ccc(OP(=O)(O)O)cc1` [pNPP, para-nitrophenyl phosphate] here?
A: more than 150 fold

Q: What about the Km ([5]; PLIP against pNPP) of the same compound?
A: 5900 µM

Q: For casein, which “PLIP activity, fold lower than against PI(5)P” value ([1]; radiolabeled protein substrates) is on record?
A: approximately 1000 fold

Q: Which “MTM1: fold less efficiency than toward preferred substrate” value [6] does the source give for “phosphatidylinositol-5 phosphate [PI (5) P]” here?
A: 200 fold

Q: What about the “Fold increase in PLIP activity versus di-C4 PI(5)P” value [4] of the same compound?
A: 10 fold

Q: What about the “Phosphatase activity, MTM1” value [2] of the same compound?
A: 22.7^d mol/(min mol)

Q: And the Km ([5]; PLIP against water-soluble di-C8 PI(5)P)?
A: 37.5 µM

Q: What about the “PTEN: fold less efficiency than toward preferred substrate” value [3] of the same compound?
A: 17 fold

Q: What about the “Phosphatase activity, PTEN” value [3] of the same compound?
A: 20.4^b mol/(min mol)

Q: What about the “PLIP activity, fold greater than against PI(3,5)P2” value ([1]; di-C8 PI's in lipid bilayer with phosphatidylserine carrier lipid) of the same compound?
A: 44 fold

Q: What about the “Phosphatase activity, PLIP” value [1] of the same compound?
A: 135^b mol/(min mol)

Q: What about the “TC-PTP activity” value ([7]; membrane-bound di-C8 PI(5)P) of the same compound?
A: barely detectable above background

Q: And the “Phosphatase activity, TC-PTP” value [7, 9]?
A: ~0.0^b mol/(min mol)

Q: What about the “VHR activity” value ([8]; membrane-bound di-C8 PI(5)P) of the same compound?
A: barely detectable above background

Q: What about the “Phosphatase activity, VHR” value [8, 9] of the same compound?
A: ~0.0^b mol/(min mol)
